Data from article PMC6007841 (Journal of medicinal chemistry, 2018).
Entries after “also recorded” stand apart in the source; their conditions may differ. Where two headings read alike, the source gives them in different places. Bridge positions count the residues as written; N and C are the ends. Ends that are not written are not given here.

Legend:
[1] = molecular target: T1, hMC1R (Homo sapiens, UniProt Q01726); conditions: transiently transfected HEK293 cells, Eu-NDP-MSH, 2 h incubation; cited from earlier work
[2] = tested on: MC1R; conditions: cited from earlier work
[3] = molecular target: T2, hMC4R (Homo sapiens, UniProt P32245); conditions: transiently transfected HEK293 cells, Eu-NDP-MSH, 2 h incubation; cited from earlier work
[4] = molecular target: T2, hMC4R; assay: cAMP AlphaScreen agonist assay, hMC4R; conditions: hMC4R; up to 100 μM; HEK293 cells, cAMP
[5] = molecular target: T1, hMC1R; conditions: human MC1R; HEK293 cells; cited from earlier work
[6] = molecular target: mMC5R (Mus musculus, UniProt P41149); assay: cAMP AlphaScreen agonist assay, mMC5R; conditions: mMC5R; up to 100 μM; HEK293 cells, cAMP
[7] = molecular target: mMC1R (Mus musculus, UniProt Q01727); assay: cAMP AlphaScreen agonist assay, mMC1R; conditions: mMC1R; up to 100 μM; HEK293 cells, cAMP
[8] = tested on: male Wistar rats; conditions: ad libitum; adult male Wistar rats; up to 2 nmol; cited from earlier work
[9] = tested on: male Wistar rats; conditions: 7 μg (1.2 nmol) ICV at the onset of a 24 h fast, vs vehicle; cited from earlier work
[10] = tested on: MC1R; conditions: B16 cells, cited from earlier work
[11] = molecular target: T2, hMC4R; assay: Competitive displacement binding, [125I]-NDP-MSH, hMC4R; conditions: 100 μM, stably expressing HEK293 cells, 1 h incubation
[12] = tested on: MC1R; conditions: primary melanocytes, cited from earlier work
[13] = molecular target: T1, hMC1R; assay: cAMP AlphaScreen agonist assay, hMC1R; conditions: hMC1R; up to 100 μM; HEK293 cells, cAMP

T2 sequence (P32245 whole entry): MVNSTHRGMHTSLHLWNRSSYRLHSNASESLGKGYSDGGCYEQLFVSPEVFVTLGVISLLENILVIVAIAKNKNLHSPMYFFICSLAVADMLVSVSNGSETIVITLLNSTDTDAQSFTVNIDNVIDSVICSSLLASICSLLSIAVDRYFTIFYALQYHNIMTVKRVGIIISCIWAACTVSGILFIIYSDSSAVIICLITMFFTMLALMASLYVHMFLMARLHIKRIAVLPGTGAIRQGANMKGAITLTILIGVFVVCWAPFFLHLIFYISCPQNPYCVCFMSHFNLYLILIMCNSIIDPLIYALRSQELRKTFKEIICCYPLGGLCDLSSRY
T1 sequence (Q01726 whole entry): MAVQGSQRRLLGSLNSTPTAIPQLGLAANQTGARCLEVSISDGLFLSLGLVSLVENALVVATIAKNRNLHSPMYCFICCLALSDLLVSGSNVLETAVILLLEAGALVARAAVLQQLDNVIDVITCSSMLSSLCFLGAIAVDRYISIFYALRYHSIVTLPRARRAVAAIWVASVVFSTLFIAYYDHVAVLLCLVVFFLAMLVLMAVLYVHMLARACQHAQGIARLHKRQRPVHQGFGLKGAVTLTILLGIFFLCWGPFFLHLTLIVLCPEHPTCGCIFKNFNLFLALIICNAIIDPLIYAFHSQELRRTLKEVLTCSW
Chain of mMC5R (P41149 whole entry): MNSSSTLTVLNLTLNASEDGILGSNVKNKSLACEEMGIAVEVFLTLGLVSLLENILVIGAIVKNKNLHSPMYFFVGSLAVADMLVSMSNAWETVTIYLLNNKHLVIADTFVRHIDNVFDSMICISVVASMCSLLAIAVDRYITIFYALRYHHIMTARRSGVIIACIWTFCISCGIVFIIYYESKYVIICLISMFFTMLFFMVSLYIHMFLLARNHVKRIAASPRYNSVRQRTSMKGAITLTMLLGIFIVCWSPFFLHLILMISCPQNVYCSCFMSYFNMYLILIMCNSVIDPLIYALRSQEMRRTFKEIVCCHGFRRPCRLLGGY
Chain of mMC1R (Q01727 whole entry): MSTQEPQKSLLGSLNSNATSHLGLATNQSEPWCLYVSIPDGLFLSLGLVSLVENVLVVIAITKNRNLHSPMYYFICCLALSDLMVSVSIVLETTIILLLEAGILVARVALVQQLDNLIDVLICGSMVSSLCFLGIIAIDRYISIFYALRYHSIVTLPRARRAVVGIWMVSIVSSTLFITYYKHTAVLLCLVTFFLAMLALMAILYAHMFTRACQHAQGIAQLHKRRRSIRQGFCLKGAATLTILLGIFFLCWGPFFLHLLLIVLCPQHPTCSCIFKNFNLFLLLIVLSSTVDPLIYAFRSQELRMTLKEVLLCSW

- Agonist efficacy (in words) [4]: Full agonist activity
- Agonist efficacy (in words) [6]: Full agonist activity
- Agonist efficacy (in words) [7]: Full agonist activity
- Displacement of radiolabeled NDP-MSH at 100 μM [11]: 50%
- Agonist efficacy (in words) [13]: Full agonist activity
Sequence: GIINTLQKYYCRVRGGRCAVLSCLPKEEQIGKCSTRGRKCCRRKK (disulfide 11-40, 18-33, 23-41) [hBD3]
- Binding affinity [1]: 42 nM
- Effect on NDP-MSH induction of cAMP ([2]; HEK293 cells expressing the MC1R, 100 nM): lower the agonist induction of cAMP
- cAMP response vs maximal response of 1 nM NDP-MSH ([2]; HEK293 cells expressing the MC1R, 300 nM): lower than the maximal response of 1 nM NDP-MSH
- cAMP levels ([2]; HEK293 cells, 100 and 300 nM): dose dependent increase in cAMP levels
- Binding affinity [3]: 110 nM
- Binding affinity [5]: 13.8 nM
- Food intake or body weight change [8]: does not result in a statistical change in food intake or body weight change
- Body weight [9]: decreased weight gain; also recorded: slower return to pre-fast weight
- Food intake [9]: decrease food intake; also recorded: significant decreases in food intake; also recorded: consumed less food
- Effect on NDP-MSH induction of cAMP ([10]; 100 nM): lower the agonist induction of cAMP
- cAMP signal ([10]; up to 100 nM): no cAMP signal
- Effect on α-MSH induction of cAMP ([12]; 100 nM): lower the agonist induction of cAMP
- cAMP signal ([12]; up to 100 nM): no cAMP signal
